The source of these data is US6893830B1, “Method of screening oxysterol activation of LXRα” (The Board of Regents of the University of Texas System, priority 1996, dated 2005).

This assay concerns the target T1, LXRα (Homo sapiens, UniProt Q13133).
T1 sequence (Q13133 1-447): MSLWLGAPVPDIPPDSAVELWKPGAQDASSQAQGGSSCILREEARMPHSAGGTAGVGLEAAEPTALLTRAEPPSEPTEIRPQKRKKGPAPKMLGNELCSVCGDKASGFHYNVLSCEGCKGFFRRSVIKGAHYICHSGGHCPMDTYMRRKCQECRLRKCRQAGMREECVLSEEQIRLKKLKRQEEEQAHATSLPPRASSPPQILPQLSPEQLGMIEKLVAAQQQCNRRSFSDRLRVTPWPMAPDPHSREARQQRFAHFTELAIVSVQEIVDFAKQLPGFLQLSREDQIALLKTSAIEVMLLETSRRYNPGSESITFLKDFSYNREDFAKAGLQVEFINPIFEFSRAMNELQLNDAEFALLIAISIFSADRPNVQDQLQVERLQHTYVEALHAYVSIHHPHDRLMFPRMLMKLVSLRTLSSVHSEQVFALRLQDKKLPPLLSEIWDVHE
T1 sequence (P19793 1-462 partner): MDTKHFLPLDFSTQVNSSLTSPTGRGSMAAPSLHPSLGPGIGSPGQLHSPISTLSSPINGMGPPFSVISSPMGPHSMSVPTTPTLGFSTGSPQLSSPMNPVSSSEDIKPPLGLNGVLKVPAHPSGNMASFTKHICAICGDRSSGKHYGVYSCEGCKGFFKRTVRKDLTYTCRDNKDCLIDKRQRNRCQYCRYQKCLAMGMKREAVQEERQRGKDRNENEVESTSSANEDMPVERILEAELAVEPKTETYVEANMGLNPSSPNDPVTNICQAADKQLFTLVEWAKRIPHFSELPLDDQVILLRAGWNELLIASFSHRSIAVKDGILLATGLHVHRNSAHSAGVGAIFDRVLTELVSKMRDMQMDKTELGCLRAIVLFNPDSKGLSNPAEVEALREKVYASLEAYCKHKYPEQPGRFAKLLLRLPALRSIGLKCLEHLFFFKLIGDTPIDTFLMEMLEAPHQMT
Put plainly: LXRα cotransfection assay with TK-LXREx3-LUC reporter in CV-1 cells. The assay is classed as cell-based. Set-up: expressed in transfected cells; host or cells: CV-1 monkey kidney cells. The method, then:
FIG. 1 Human LXRα is activated by gonad sterols. (A) Transactivation of LXRα ligand binding domain (LBD) with testis extract. CV-1 cells were cotransfected with a GAL4 responsive luciferase reporter plasmid and an expression plasmid encoding no receptor or a chimeric receptor composed of the GAL4 DNA binding domain fused to the LXRα ligand binding domain (LBD) (GAL4-LXRα)^3. After transfection, cells were treated with ethanol (ETOH) or 1% of the concentrated testis extract. (B) Transactivation of LXRα with follicular fluid meiosis activating substance (FF-MAS). CV-1 cells were cotransfected with an LXRα responsive reporter plasmid and the receptor expression plasmids for LXRα alone or with RXRα. After transfection, cells were treated with ETOH or […] FF-MAS.
FIG. 2 LXRα is activated by a specific subset of oxysterols. (A) Specificity of LXRα activators. Shown is a representative group from 70 compounds evaluated for LXRα activity (10 μM) in cotransfection assays as described in FIG. 1B. […] (B) The the structure-activity relationship of LXRα activators. Data compiled from FIG. 2A and other experiments (not shown) reveal that the position of the hydroxyl on the cholesterol backbone is a determinant of LXRα activity. […] Dose response curves for LXRα activators were generated in CV-1 cell cotransfection assays as described in FIG. 1B.
Organic extraction of breeding bull testis was performed as described^6. Briefly, 12 grams of lyophilized testis was extracted with N-heptane and lipids were concentrated by roto-evaporation. Aliquots representing 1% of this material were assayed. FF-MAS was synthesized as described^18. Transient transfections in CV-1 monkey kidney cells were performed in triplicate in 48-well plates as described^3 with media containing 5% cabosil-treated calf bovine serum.
Transfections were performed in FIG. 1A using 80 ng of TK-MH100x4-LUC reporter and 30 ng of CMX-GAL4-hLXRα expression plasmids per well; and in FIG. 1B using 50 ng of TK-LXREx3-LUC reporter and 25 ng of CMX-hLXRa alone or with 25 ng CMX-hRXRa expression plasmids per well. Candidate ligands were dissolved in ethanol and added 8 hours post-transfection. As an internal standard, 50 ng of CMX-β gal was included in all transfections. All plasmid constructs and determinations of luciferase and β-galactosidase activities have been described^3. To construct CMX-LXRα, the hLXRα cDNA insert was excised from the plasmid pXR2DRV (Willy, et al., 1995, Genes Dev. 9: 1033-1045) with Kpnl and BamHI and was ligated into the expression vector CMX. CMX-βgal was constructed by ligating the β-galactosidase gene into the expression vector CMX. Chimeric Gal4-receptor expression plasmid (CMX-GAL4-LXRα) was constructed by first ligating the GAL4 portion of pSC424 (Sadowski, I. and M. Ptashne, 1989, Nucleic Acids Res. 19: 7539-7530) into the HindIII/SacI sites of pCMX (Umesono, et al., 1991, Cell 65: 1255-1266) to create pCMX-GAL4. This vector contains the CMV promoter fused to the coding sequence for GAL4 (1-147), followed by inframe polylinker cloning sites and translational stop codons. The cDNAs encoding the ligand-binding domain (LBD) of hLXRα (amino acids 166-447) was then ligated into the polylinker to create CMX-GAL4-LXRα.
Reporter plasmids for these studies were constructed by ligating the appropriate oligonucleotides into the HindIII site of the TK-LUC vector to create TK-LXREx3-LUC, TK-MH100x4-LUC (Kang, T., et al., 1993, J. Biol Chem. 268: 9629-9635). The sense strand of the LXRE oligonucleotide used to construct the reporter plasmid TK-LXREx3-LUC was 5′agctt[…]3′ (SEQ. ID. NO. 1). All constructs were verified by sequencing. Data are presented as relative light units (RLUs) and represent the mean of triplicate assays±standard error. […]

Each structure is given as a SMILES string.

In the case of `CC(C)CC[C@@H](O)[C@@H](C)[C@H]1CC[C@H]2[C@@H]3CC=C4C[C@@H](O)CC[C@]4(C)[C@H]3CC[C@]12C` [22(R)-hydroxycholesterol], the response was half-maximal at 1500 nM (EC50).

One may read the EC50 as the concentration that produces a half-maximal response.
